According to patent publication EP0054589B1, “Organic phosphoric acid ester derivatives, a process for preparing the same and insecticidal, miticidal or nematocidal compositions containing the same” (priority 1980, dated 1982):

Tests used:
Tomato = assay: Phytotoxicity on various crops; type: in vivo; set-up: key: Symbol — indicates that no toxicity was observed; conditions: 500 ppm sprayed; checked visually after 10 days
Description: (§1) An emulsifiable concentrate prepared as described in Formulation Example 2 was diluted with water to a concentration of 500 ppm based on the effective ingredient and sprayed sufficiently using a spray-gun onto various test plants. The plants were kept in a green house. After 10 days from the application phytotoxicity was checked visually. The test was replicated 3 times for each compound.

Green Pepper = assay: Phytotoxicity on various crops; type: in vivo; set-up: key: Symbol — indicates that no toxicity was observed; conditions: 500 ppm sprayed; checked visually after 10 days
Description: as §1

Cotton = assay: Phytotoxicity on various crops; type: in vivo; set-up: key: Symbol — indicates that no toxicity was observed; conditions: 500 ppm sprayed; checked visually after 10 days
Description: as §1

Cucumber = assay: Phytotoxicity on various crops; type: in vivo; set-up: key: Symbol — indicates that no toxicity was observed; conditions: 500 ppm sprayed; checked visually after 10 days
Description: as §1

Rice = assay: Phytotoxicity on various crops; type: in vivo; set-up: key: Symbol — indicates that no toxicity was observed; conditions: 500 ppm sprayed; checked visually after 10 days
Description: as §1

Tea = assay: Phytotoxicity on various crops; type: in vivo; set-up: key: Symbol — indicates that no toxicity was observed; conditions: 500 ppm sprayed; checked visually after 10 days
Description: as §1

Beet = assay: Phytotoxicity on various crops; type: in vivo; set-up: key: Symbol — indicates that no toxicity was observed; conditions: 500 ppm sprayed; checked visually after 10 days
Description: as §1

Cabbage = assay: Phytotoxicity on various crops; type: in vivo; set-up: key: Symbol — indicates that no toxicity was observed; conditions: 500 ppm sprayed; checked visually after 10 days
Description: as §1

Kidney Bean = assay: Phytotoxicity on various crops; type: in vivo; set-up: key: Symbol — indicates that no toxicity was observed; conditions: 500 ppm sprayed; checked visually after 10 days
Description: as §1

egg plant = assay: Phytotoxicity on various crops; type: in vivo; set-up: key: Symbol — indicates that no toxicity was observed; conditions: 500 ppm sprayed; checked visually after 10 days
Description: as §1

Apple = assay: Phytotoxicity on various crops; type: in vivo; set-up: key: Symbol — indicates that no toxicity was observed; conditions: 500 ppm sprayed; checked visually after 10 days
Description: as §1

tobacco cutworm [1] = assay: Insecticidal effect on tobacco cutworm (cabbage leaf dip); type: in vivo, Prodenia litura; conditions: after 48 hours, 25°C
Description: (§2) (A) An emulsifiable concentrate prepared as described in Formulation Example 1 was diluted with water to a predetermined concentration and then cabbage leaves were dipped into the dilute solution and dried in air and placed in a 60 ml volume cup made of vinyl chloride resin. 3rd-instar larvae of tobacco cutworm were put in each cup and maintained at 25°C. After 48 hours, percent mortality was assessed. The test was replicated 3 times for each compound using 30 insects in each test.
as §2, with “(B)” for “(A)”, “3” for “1”

rice stem borer = assay: Insecticidal effect on rice stem borer, 3rd-instar larvae (rice seedling dip); type: in vivo, Chilo suppressalis; conditions: after 72 hours, 25°C
Description: (§3) (A) A wettable powder prepared as described in Formulation Example 5 was diluted with water to a predetermined concentration. Rice seedlings were dipped into the dilute solution and placed in a 60 ml volume cup made of vinyl chloride resin, and 10 3rd-instar larvae of rice stem borer were put in each cup. The cups were capped and maintained at 25°C.
as §3, with “(B) A” for “(A) A”, “Example 7” for “Example 5”

tobacco cutworm [2] = assay: Long-lasting insecticidal effect on tobacco cutworm (sprayed cabbage plantlet); type: in vivo, Prodenia litura; conditions: Table 5, concentration 500 (unit not given), mortality after 48 hours
Description: (§4) (A) An emulsifiable concentrate prepared as described in Formulation Example 2 was diluted with water to a predetermined concentration and sprayed onto a cabbage plantlet in a flower pot of 15 cm in diameter using a spray-gun sufficiently and the tests plants were placed in a green house. The leaves of the plants were cut off on the 3rd, 5th, 7th, 10th and 15th day and placed in a 60 ml volume cup and 3rd-instar larvae of tobacco cutworm were put in each cup. The cups were kept in an incubator (25°C). After 48 hours, percent mortality was assessed. The tests was replicated 3 times for each compound using 30 insects in each test.
as §4, with “(B) An” for “(A) An”, “Example 3” for “Example 2”, “and 1 5th” for “and 15th”

[3] = Table 3, 500 ppm, emulsifiable concentrate as Formulation Example 1
[4] = Table 1, 500 ppm, wettable powder as Formulation Example 5
[5] = Table 4, 100 ppm, emulsifiable concentrate as Formulation Example 3
[6] = Table 1, 100 ppm, wettable powder as Formulation Example 5
[7] = Table 2, 100 ppm, wettable powder as Formulation Example 7

Compound | Phytotoxicity: Tomato (Tomato) | Phytotoxicity: Green Pepper (Green Pepper) | Phytotoxicity: Cotton (Cotton) | Phytotoxicity: Cucumber (Cucumber) | Phytotoxicity: Rice (Rice) | Phytotoxicity: Tea (Tea) | Phytotoxicity: Beet (Beet) | Phytotoxicity: Cabbage (Cabbage) | Phytotoxicity: Kidney Bean (Kidney Bean) | Phytotoxicity: Egg Plant (egg plant) | Phytotoxicity: Apple (Apple) | Percent Mortality (%) (tobacco cutworm [1]; [3]) | Percent Mortality (%) (rice stem borer; [4]) | further results
CCCOP(=O)(Oc1ccc2c(c1)OC(C)=CC2(C)C)SCCC (centres unmarked) [Compound No. 3] | — | — | — | — | — | — | — | — | — | — | — | 100 | 100 | 
CCOP(=O)(Oc1ccc2c(c1)OC(C)=CC2(C)C)SCC (centres unmarked) [Compound No. 8] | — | — | — | — | — | — | — | — | — | — | — | 100 | 100 | 
CCCOP(=O)(Oc1ccc2c(c1)OC(C)=CC2(C)C)SC (centres unmarked) [Compound No. 13] | — | — | — | — | — | — | — | — | — | — | — | 100 | 100 | 
CCCSP(=O)(OCC)Oc1ccc2c(c1)OC(CC)=C(C)C2(CC)CC (centres unmarked) [Compound No. 21, O-ethyl-S-propyl-O-(2,4,4-triethyl-3-methyl-1,2-benzopyran-7-yl)phosphorothioate] | — | — | — | — | — | — | — | — | — | — | — |  | 100 | Percent Mortality (%) (tobacco cutworm [1]; [5]): 100%; Percent Mortality (%) (rice stem borer; [6]): 100%; Percent Mortality (%) (rice stem borer; [7]): 100%
CCOP(=S)(Oc1cccc2c1C(C)=CC(C)(C)O2)SC(C)CC (centres unmarked) [Compound No. 27] | — | — | — | — | — | — | — | — | — | — | — |  |  | Percent Mortality (%) (tobacco cutworm [1]; [5]): 100%; Percent Mortality (%) (rice stem borer; [7]): 100%
COP(=O)(OC)C(O)C(Cl)(Cl)Cl (centres unmarked) [Dipterex, dimethyl 2,2,2-trichloro-1-hydroxyethyl phosphonate, reference compound] |  |  |  |  |  |  |  |  |  |  |  |  | 100 | Percent Mortality (%) (rice stem borer; [6]): 100%
CNC(=O)ON=C(C)SC [Lannate, S-methyl N-(methylcarbamoyloxy)thioacetimidate, reference compound] |  |  |  |  |  |  |  |  |  |  |  |  |  | Percent Mortality After Application 3rd Day (tobacco cutworm [2]; leaves cut on 3rd day): 80%; Percent Mortality After Application 5th Day (tobacco cutworm [2]; leaves cut on 5th day): 30%; Percent Mortality After Application 7th Day (tobacco cutworm [2]; leaves cut on 7th day): 7%; Percent Mortality After Application 10th Day (tobacco cutworm [2]; leaves cut on 10th day): 0%; Percent Mortality After Application 15th Day (tobacco cutworm [2]; leaves cut on 15th day): 0%
COP(=O)(NC(C)=O)SC (centres unmarked) [Orthene, O,S-dimethyl acetylphosphoramidothioate, reference compound] |  |  |  |  |  |  |  |  |  |  |  | 90.0 |  | 
COP(=S)(OC)Oc1ccc([N+](=O)[O-])c(C)c1 [Sumithion, dimethyl(3-methyl-4-nitrophenyl)thiophosphate, reference compound] |  |  |  |  |  |  |  |  |  |  |  |  |  | Percent Mortality (%) (rice stem borer; Table 2, concentration not given): 100%
CCCCOP(=O)(Oc1ccc2c(c1)OC(C)=CC2(C)C)SCCC (centres unmarked) [compound 4] | — | — | — | — | — | — | — | — | — | — | — | 100 | 100 | 
CCOP(=S)(Oc1ccc2c(c1)OC(C)=CC2(C)C)SCC (centres unmarked) [compound 12] | — | — | — | — | — | — | — | — | — | — | — | 100 | 100 | 
CCCSP(=O)(Oc1ccc2c(c1)OC(C)=CC2(C)C)OC(C)CC (centres unmarked) [compound 15] | — | — | — | — | — | — | — | — | — | — | — | 100 | 100 | 
O-isopropyl-S-isopropyl-O-(2,4,4-trimethyl-1,4-benzopyran-7-yl)phosphorothioate [Compound No. 7] | — | — | — | — | — | — | — | — | — | — | — | 100 | 100 | 
